Measured values as given in US20070128217A1 (priority 2003, published 2007).

How the values were obtained:
[1] = test system: antibodies in sera from SARS patients (sera 1a, 1b, 2, 6, 37, 62, London, SARS-yellow, SARS-green); format: binding, human; design: Binding of serum 6 to linear peptides of protein X1 of SARS-CoV Urbani / Binding of serum 37 to linear peptides of protein X1 of SARS-CoV Urbani / Binding of serum 6 to looped/cyclic peptide (PEPSCAN-ELISA) / Binding of serum 37 to looped/cyclic peptide (PEPSCAN-ELISA) / Binding of serum 37 to looped/cyclic peptides of protein X1 of SARS-CoV Urbani / Binding of serum 6 to linear peptides of protein X2 / Binding of serum 37 to linear peptides of protein X2 / Binding of serum 37 to looped/cyclic peptides of protein X2 of SARS-CoV Urbani / Binding of serum 6 to linear peptides of protein M of SARS-CoV Urbani / Binding of serum 37 to linear peptides of protein M of SARS-CoV Urbani / Binding of serum 6 to looped/cyclic peptides of protein M of SARS-CoV Urbani / Binding of serum 37 to looped/cyclic peptides of protein M of SARS-CoV Urbani / Binding of serum 6 to linear peptides of protein X3 of SARS-CoV Urbani / Binding of serum 37 to linear peptides of protein X3 of SARS-CoV Urbani / Binding of serum 37 to looped/cyclic peptides of protein X3 of SARS-CoV Urbani / Binding of serum 6 to linear peptides of protein X4 of SARS-CoV Urbani / Binding of serum 37 to linear peptides of protein X4 of SARS-CoV Urbani / Binding of serum 37 to looped/cyclic peptides of protein X4 of SARS-CoV Urbani / Binding of serum 6 to linear peptides of protein X5 of SARS-CoV Urbani / Binding of serum 37 to linear peptides of protein X5 of SARS-CoV Urbani / Binding of serum 37 to looped/cyclic peptides of protein X5 of SARS-CoV Urbani / Binding of serum 6 to linear peptides of protein N of SARS-CoV Urbani / Binding of serum 37 to linear peptides of protein N of SARS-CoV Urbani / Binding of serum 6 to linear peptide (PEPSCAN-ELISA) / Binding of serum 1a to looped/cyclic peptides of protein N of SARS-CoV Urbani / Binding of serum 1b to looped/cyclic peptides of protein N of SARS-CoV Urbani / Binding of serum 2 to looped/cyclic peptides of protein N of SARS-CoV Urbani / Binding of serum 6 to looped/cyclic peptides of protein N of SARS-CoV Urbani / Binding of serum 37 to looped/cyclic peptides of protein N of SARS-CoV Urbani / Binding of serum 62 to looped/cyclic peptides of protein N of SARS-CoV Urbani / Binding of serum London to looped/cyclic peptides of protein N of SARS-CoV Urbani / Binding of serum SARS-green to looped/cyclic peptides of protein N of SARS-CoV Urbani: unit not given here
[2] = test system: control sera (pooled serum of ten healthy LUMC hospital workers; commercial negative donor pooled serum from the Dutch bloodbank); format: binding, human; design: Binding of Control serum LUMC to linear peptides / Binding of Control serum Blood-bank to linear peptides / Binding of Control serum LUMC to looped peptides / Binding of Control Serum Blood-Bank to Looped peptides / Binding of Control serum LUMC to linear peptides of the protein M of SARS-CoV Urbani / Binding of Control serum Blood-bank to linear peptides of the protein M of SARS-CoV Urbani / Binding of Control serum LUMC to looped peptides of the protein M of SARS-CoV Urbani / Binding of Control Serum Blood-Bank to Looped peptides of the protein M of SARS-CoV Urbani: unit not given here
[3] = test system: rabbit serum obtained by immunizing a rabbit with the SARS-CoV strain Frankfurt 1; format: binding; design: Binding of a rabbit serum to linear peptides / Binding of a rabbit serum to looped peptides / Rabbit serum linear peptides / Rabbit serum looped peptides / Binding of a rabbit serum to linear peptides of protein N of SARS-CoV Urbani (Rabbit serum linear peptides) / Binding of a rabbit serum to looped/cyclic peptides of protein N of SARS-CoV Urbani (Rabbit serum looped peptides): unit not given here

QLLEQWNLVIGFLFL was tested, and the “Binding of serum 1a to linear peptides of protein M of SARS-CoV Urbani” value [1] was 0.7, the “Binding of serum 1a to looped/cyclic peptides of protein M of SARS-CoV Urbani” value [1] was 0.5 and the “Binding of serum 1b to linear peptides of protein M of SARS-CoV Urbani” value [1] was 0.4. For the same sequence, the “Binding of serum 1b to looped/cyclic peptides of protein M of SARS-CoV Urbani” value [1] was 0.5, the “Binding of serum 2 to linear peptides of protein M of SARS-CoV Urbani” value [1] was 0.5 and the “Binding of serum 2 to looped/cyclic peptides of protein M of SARS-CoV Urbani” value [1] was 0.4. The “Binding of serum 6 to linear peptides of protein M of SARS-CoV Urbani” value [1] was 0.4, the “Binding of serum 6 to looped/cyclic peptides of protein M of SARS-CoV Urbani” value [1] was 0.5 and the “Binding of serum 37 to linear peptides of protein M of SARS-CoV Urbani” value [1] was 0.6. For the same sequence, the “Binding of serum 37 to looped/cyclic peptides of protein M of SARS-CoV Urbani” value [1] was 0.5, the “Binding of serum 62 to linear peptides of protein M of SARS-CoV Urbani” value [1] was 0.6 and the “Binding of serum 62 to looped/cyclic peptides of protein M of SARS-CoV Urbani” value [1] was 0.4. The “Binding of serum London to linear peptides of protein M of SARS-CoV Urbani” value [1] was 0.4, the “Binding of serum London to looped/cyclic peptides of protein M of SARS-CoV Urbani” value [1] was 0.2 and the “Binding of serum SARS-green to linear peptides of protein M of SARS-CoV Urbani” value [1] was 0.2. For the same sequence, the “Binding of serum SARS-green to looped/cyclic peptides of protein M of SARS-CoV Urbani” value [1] was 0.3, the “Binding of serum SARS-yellow to linear peptides of protein M of SARS-CoV Urbani” value [1] was 0.0 and the “Binding of serum SARS-yellow to looped/cyclic peptides of protein M of SARS-CoV Urbani” value [1] was 0.7. The “Binding of Control Serum Blood-Bank to Looped peptides of the protein M of SARS-CoV Urbani” value [2] was 0.5, the “Binding of Control serum Blood-bank to linear peptides of the protein M of SARS-CoV Urbani” value [2] was 0.5 and the “Binding of Control serum LUMC to linear peptides of the protein M of SARS-CoV Urbani” value [2] was 0.3. For the same sequence, the “Binding of Control serum LUMC to looped peptides of the protein M of SARS-CoV Urbani” value [2] was 0.7, the “Rabbit serum linear peptides” value [3] was 0.2 and the “Rabbit serum looped peptides” value [3] was 0.0.
TDTGIENATFFIFNK was tested, and the “Binding of serum 1a to linear peptides of protein X1 of SARS-CoV Urbani” value [1] was 0.7, the “Binding of serum 1a to looped/cyclic peptides of protein X1 of SARS-CoV Urbani” value [1] was 0.5 and the “Binding of serum 1b to linear peptides of protein X1 of SARS-CoV Urbani” value [1] was 0.4. For the same sequence, the “Binding of serum 1b to looped/cyclic peptides of protein X1 of SARS-CoV Urbani” value [1] was 0.5, the “Binding of serum 2 to linear peptides of protein X1 of SARS-CoV Urbani” value [1] was 0.5 and the “Binding of serum 2 to looped/cyclic peptides of protein X1 of SARS-CoV Urbani” value [1] was 0.5. The “Binding of serum 6 to linear peptides of protein X1 of SARS-CoV Urbani” value [1] was 0.7, the “Binding of serum 6 to looped/cyclic peptides of protein X1 of SARS-CoV Urbani” value [1] was 0.5 and the “Binding of serum 37 to linear peptides of protein X1 of SARS-CoV Urbani” value [1] was 0.6. For the same sequence, the “Binding of serum 37 to looped/cyclic peptides of protein X1 of SARS-CoV Urbani” value [1] was 0.7, the “Binding of serum 62 to linear peptides of protein X1 of SARS-CoV Urbani” value [1] was 0.5 and the “Binding of serum 62 to looped/cyclic peptides of protein X1 of SARS-CoV Urbani” value [1] was 0.7. The “Binding of serum London to linear peptides of protein X1 of SARS-CoV Urbani” value [1] was 0.3, the “Binding of serum London to looped/cyclic peptides of protein X1 of SARS-CoV Urbani” value [1] was 0.3 and the “Binding of serum SARS-green to linear peptides of protein X1 of SARS-CoV Urbani” value [1] was 0.5. The “Binding of serum SARS-green to looped/cyclic peptides of protein X1 of SARS-CoV Urbani” value [1] was 0.4, the “Binding of serum SARS-yellow to linear peptides of protein X1 of SARS-CoV Urbani” value [1] was 0.0 and the “Binding of serum SARS-yellow to looped/cyclic peptides of protein X1 of SARS-CoV Urbani” value [1] was 0.5. The “Binding of Control Serum Blood-Bank to Looped peptides” value [2] was 0.8, the “Binding of Control serum Blood-bank to linear peptides” value [2] was 0.6 and the “Binding of Control serum LUMC to linear peptides” value [2] was 0.4. For the same sequence, the “Binding of Control serum LUMC to looped peptides” value [2] was 0.6, the “Binding of a rabbit serum to linear peptides” value [3] was 0.1 and the “Binding of a rabbit serum to looped peptides” value [3] was 0.6.
